Measurements reported in patent US8283378B2, “Phenylurea inhibitors of the SOAT-1 enzyme and pharmaceutical/cosmetic compositions comprised thereof” (Galderma Research & Development, priority 2007, dated 2012).

Molecular target: T1, enzyme ACAT-1 (Homo sapiens, UniProt P35610)
T1 construct: endogenous in cells; host or cells: HepG2
T1 sequence (P35610 1-550): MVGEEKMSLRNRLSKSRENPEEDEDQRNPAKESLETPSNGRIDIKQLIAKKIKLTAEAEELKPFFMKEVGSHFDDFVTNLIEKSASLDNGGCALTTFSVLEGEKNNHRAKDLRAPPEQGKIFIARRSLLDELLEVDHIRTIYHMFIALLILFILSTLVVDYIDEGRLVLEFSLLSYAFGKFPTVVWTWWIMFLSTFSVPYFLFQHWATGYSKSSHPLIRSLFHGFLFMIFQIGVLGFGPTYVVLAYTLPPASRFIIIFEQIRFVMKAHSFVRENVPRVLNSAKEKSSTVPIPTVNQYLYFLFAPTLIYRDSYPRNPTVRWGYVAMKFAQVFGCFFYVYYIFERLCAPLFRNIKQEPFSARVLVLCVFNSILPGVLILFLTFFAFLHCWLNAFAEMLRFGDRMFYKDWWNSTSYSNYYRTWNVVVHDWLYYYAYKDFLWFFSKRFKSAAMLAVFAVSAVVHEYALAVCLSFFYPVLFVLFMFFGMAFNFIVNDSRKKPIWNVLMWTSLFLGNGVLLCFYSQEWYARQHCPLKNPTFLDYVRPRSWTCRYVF
Assay: primary HepG2 enzyme test: cell-based NBD-cholesterol fluorescence assay of ACAT-1 (SOAT-1) inhibition
Settings: HepG2 cells, NBD-cholesterol 1 μg/ml, incubation 6 h at 37° C., fluorescence excitation 490 nm / emission 540 nm
Description: The compounds (I) according to the invention, as well as their pharmaceutically acceptable salts, solvates and/or hydrates, display SOAT-1 enzyme inhibiting properties. This inhibitory effect on the SOAT-1 enzyme is measured by a primary HepG2 enzyme test, as described below.
The compounds of formula (I) according to the invention were tested to evaluate their inhibitory activity with respect to the enzyme ACAT-1 based on the following work: “Identification of ACAT1- and ACAT2-specific inhibitors using a novel, cell based fluorescence assay: individual ACAT uniqueness”, J. lipid. Res (2004) vol 45, pages 378-386. The principle of this test is based on the use of NBD-cholesterol, an analogue of cholesterol with fluorescence depending on its environment. When it is in a polar environment it is weakly fluorescent, whereas in a non-polar environment it is strongly fluorescent. Free NBD-cholesterol localizes in the cell membranes and is weakly fluorescent in this polar environment. […]
The following method is used: HepG2 cells are incubated in the presence of NBD-cholesterol (1 μg/ml) and of the test compound of formula (I) in black, transparent-bottom 96-well plates at a rate of 30000 cells per well. […] After adding 50 μl of lysis buffer (NaPO4 10 mM, Igepal 1%) the plates are agitated for 5 min and, read in fluorescence (excitation 490 nm, emission 540 nm) on a FUSION instrument (Perkin Elmer).

IC50: 0.071 µM
Structure (SMILES): CC(C)c1cccc(C(C)C)c1NC(=O)NCC1(SCc2ccccc2)CCCCC1 [Compound (I.4), 1-(1-Benzylsulfanyl-cyclohexylmethyl)-3-(2,6-diisopropyl-phenyl)-urea]
